Measurements: patent US6903112B2, “Heterocyclylindazole and -azaindazole compounds as 5-hydroxytryptamine-6 ligands” (Wyeth, priority 2000, dated 2005)

Each compound was assayed against T1, human cloned 5-HT6 receptors (Homo sapiens, UniProt P50406) (assay: 5-HT6 binding affinity, [3H]-LSD displacement on Hela cell membranes). Conditions: [3H]-LSD 3.0 nM; membranes of Hela cells expressing human cloned 5-HT6 receptors; 120 min at room temperature.
T1 construct: expressed in transfected cells; host or cells: Hela cells
Procedure: The affinity of test compounds for the serotonin 5-HT6 receptor is evaluated in the following manner. Cultured Hela cells expressing human cloned 5-HT6 receptors are harvested and centrifuged at low speed (1,000×g) for 10.0 min to remove the culture media. The harvested cells are suspended in half volume of fresh physiological phosphate buffered saline solution and recentrifuged at the same speed. This operation is repeated. The collected cells are then homogenized in ten volumes of 50 mM Tris.HCl (pH 7.4) and 0.5 mM EDTA. The homogenate is centrifuged at 40,000×g for 30.0 min and the precipitate is collected. The obtained pellet is resuspended in 10 volumes of Tris.HCl buffer and recentrifuged at the same speed. The final pellet is suspended in a small volume of Tris.HCl buffer and the tissue protein content is determined in aliquots of 10-25 μl volumes. Bovine Serum Albumin is used as the standard in the protein determination according to the method described in Lowry et al., J. Biol. Chem., 193:265 (1951). The volume of the suspended cell membranes is adjusted to give a tissue protein concentration of 1.0 mg/ml of suspension. The prepared membrane suspension (10 times concentrated) is aliquoted in 1.0 ml volumes and stored at −70° C. until used in subsequent binding experiments.
Binding experiments are performed in a 96 well microtiter plate format, in a total volume of 200 μl. […] The test compounds are added in 20.0 μl volume.
The reaction is allowed to proceed in the dark for 120 min at room temperature, at which time, the bound ligand-receptor complex is filtered off on a 96 well unifilter with a Packard Filtermate® 196 Harvester. The bound complex caught on the filter disk is allowed to air dry and the radioactivity is measured in a Packard TopCount® equipped with six photomultiplier detectors, after the addition of 40.0 μl Microscint®-20 scintillant to each shallow well. The unifilter plate is heat-sealed and counted in a PackardTopCount® with a tritium efficiency of 31.0%.
Binding in the presence of varying concentrations of test compound is expressed as a percentage of specific binding in the absence of test compound. The results are plotted as log % bound versus log concentration of test compound. […] A linear regression line of data points is plotted, from which the IC50 value is determined and the Ki value is determined based upon the following equation: Ki=IC50/(1+L/KD) where L is the concentration of the radioactive ligand used and KD is the dissociation constant of the ligand for the receptor, both expressed in nM.

T1 sequence (P50406 whole entry): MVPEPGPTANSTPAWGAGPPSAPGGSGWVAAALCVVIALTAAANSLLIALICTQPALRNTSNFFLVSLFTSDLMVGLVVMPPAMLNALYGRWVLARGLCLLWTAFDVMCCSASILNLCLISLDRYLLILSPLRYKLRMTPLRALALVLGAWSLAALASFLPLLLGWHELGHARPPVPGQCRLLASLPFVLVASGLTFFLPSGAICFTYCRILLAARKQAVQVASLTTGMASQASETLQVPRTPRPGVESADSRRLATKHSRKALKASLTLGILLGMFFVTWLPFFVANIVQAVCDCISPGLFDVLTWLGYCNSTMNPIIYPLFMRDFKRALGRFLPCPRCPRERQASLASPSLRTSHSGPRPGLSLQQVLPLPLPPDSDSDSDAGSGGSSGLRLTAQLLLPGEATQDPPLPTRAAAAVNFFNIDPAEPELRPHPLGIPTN

Structure (SMILES)	Ki
O=S(=O)(c1ccccc1Br)n1cc(C2CCN(Cc3ccccc3)C2)c2ccccc21 (stereo not drawn) [Example 22, 3-(1-benzylpyrrolidin-3-yl)-1-(2-bromophenylsulfonyl)-1H-indole]	14 nM
CN1CCC(c2cn(S(=O)(=O)c3ccc(Cl)cc3)c3ccccc23)C1 (stereo not drawn) [Example 6, 1-(4-chlorophenylsulfonyl)-3-(1-methylpyrrolidin-3-yl)-1H-indole]	1 nM
CN1CCC(c2cn(S(=O)(=O)c3ccc(F)cc3)c3ccccc23)C1 (stereo not drawn) [Example 4, 1-(4-fluorophenylsulfonyl)-3-(1-methyl-pyrrolidin-3-yl)-1H-indole]	2 nM
O=S(=O)(c1ccc2ccccc2c1)n1cc(C2CCCNC2)c2ccccc21 (stereo not drawn) [Example 41, 1-(2-naphthylenesulfonyl)-3-piperidin-3-yl-1H-indole]	8 nM
CN1CCC(c2cn(S(=O)(=O)c3ccc(Cl)c(Cl)c3)c3ccccc23)C1 (stereo not drawn) [Example 11, 1-(3,4-dichlorophenylsulfonyl)-3-(1-methylpyrrolidin-3-yl)-1H-indole]	3 nM
O=S(=O)(c1ccc(Cl)s1)n1cc(C2CCCNC2)c2ccccc21 (stereo not drawn) [Example 33, 1-(5-chloro-thiophene-2-sulfonyl)-3-piperidin-3-yl-1H-indole]	3 nM
O=S(=O)(c1ccc(Br)s1)n1cc(C2CCN(Cc3ccccc3)C2)c2ccccc21 (stereo not drawn) [Example 24, 3-(1-benzylpyrrolidin-3-yl)-1-[(5-bromothien-2-yl)sulfonyl]-1H-indole]	9 nM
O=S(=O)(c1ccc(F)c(F)c1)n1cc(C2CCCNC2)c2ccccc21 (stereo not drawn) [Example 35, 1-(3,4-difluoro-benzenesulfonyl)-3-piperidin-3-yl-1H-indole]	7 nM
COc1ccc(S(=O)(=O)n2cc(C3CCN(C)C3)c3ccccc32)cc1OC (stereo not drawn) [Example 10, 1-(3,4-dimethoxyphenylsulfonyl)-3-(1-methylpyrrolidin-3-yl)-1H-indole]	5 nM
O=S(=O)(c1ccc(C(F)(F)F)cc1)n1cc(C2CCCNC2)c2ccccc21 (stereo not drawn) [Example 38, 1-(4-trifluoromethy-benzenesulfonyl)-3-piperidin-3-yl-1H-indole]	10 nM
CN1CCC(c2cn(S(=O)(=O)c3ccccc3Br)c3ccccc23)C1 (stereo not drawn) [Example 13, 1-(2-bromophenylsulfonyl)-3-(1-methylpyrrolidin-3-yl)-1H-indole]	1 nM
O=S(=O)(c1ccccc1)n1cc(C2CCCNC2)c2ccccc21 (stereo not drawn) [Example 31, 1-Benzenesulfonyl-3-piperidin-3-yl-1H-indole]	2 nM
CN1CCC(c2cn(S(=O)(=O)c3ccccc3I)c3ccccc23)C1 (stereo not drawn) [Example 17, 1-(2-iodophenylsulfonyl)-3-(1-methylpyrrolidin-3-yl)-1H-indole]	2 nM
CN1CCC(c2cn(S(=O)(=O)c3ccc(I)cc3)c3ccccc23)C1 (stereo not drawn) [Example 16, 1-(4-iodophenylsulfonyl)-3-(1-methylpyrrolidin-3-yl)-1H-indole]	1 nM
O=S(=O)(c1cccc(Cl)c1)n1cc(C2CCCNC2)c2ccccc21 (stereo not drawn) [Example 34, 1-(3-chloro-benzenesulfonyl)-3-piperidin-3-yl-1H-indole]	2 nM
Nc1ccc(S(=O)(=O)n2cc(C3CCN(Cc4ccccc4)C3)c3ccccc32)cc1 (stereo not drawn) [Example 20, 1-(4-aminophenylsulfonyl)-3-(1-benzylpyrrolidin-3-yl)-1H-indole]	1 nM
CC(C)c1ccc(S(=O)(=O)n2cc(C3CCCNC3)c3ccccc32)cc1 (stereo not drawn) [Example 32, 1-(4-isopropyl-benzenesulfonyl)-3-piperidin-3-yl-1H-indole]	5 nM
CN1CCC(c2cn(S(=O)(=O)c3ccc(N)cc3)c3ccccc23)C1 (stereo not drawn) [Example 9, 1-(4-aminophenylsulfonyl)-3-(1-methylpyrrolidin-3-yl)-1H-indole]	1 nM
Cc1nc(N)sc1S(=O)(=O)n1cc(C2CCN(Cc3ccccc3)C2)c2ccccc21 (stereo not drawn) [Example 23, 5-[3-(1-benzylpyrrolidin-3-yl)-indole-1-sulfonyl]-4-methyl-thiazol-2-ylamine]	3 nM
O=S(=O)(c1ccc(Cl)c(Cl)c1)n1cc(C2CCN(Cc3ccccc3)C2)c2ccccc21 (stereo not drawn) [Example 21, 3-(1-benzylpyrrolidin-3-yl)-1-(3,4-dichlorophenyl-sulfonyl)-1H-indole]	15 nM
Cc1ccc(S(=O)(=O)n2cc(C3CCN(Cc4ccccc4)C3)c3ccccc32)cc1 (stereo not drawn) [Example 18, 3-(1-benzylpyrrolidin-3-yl)-1-(4-methylphenylsulfonyl)-1H-indole]	8 nM
O=S(=O)(c1cccc(Cl)c1)n1cc(C2CCCNC2)c2cccnc21 (stereo not drawn) [Example 48, 1-(3-chloro-benzenesulfonyl)-3-piperidin-3-yl-1H-pyrrolo[2,3-b]pyridine]	6 nM
CN1CCC(c2cn(S(=O)(=O)c3cc(Cl)c(Cl)s3)c3ccccc23)C1 (stereo not drawn) [Example 12, 1-[(4,5-dichlorothien-2-yl)sulfonyl]-3-(1-methyl-pyrrolidin-3-yl)-1H-indole]	4 nM
O=S(=O)(c1ccc(Cl)s1)n1cc(C2CCCNC2)c2cccnc21 (stereo not drawn) [Example 47, 1-(5-chloro-thiophene-2-sulfonyl)-3-piperidin-3-yl-1H-pyrrolo[2,3-b]pyridine]	7 nM
COc1ccc(S(=O)(=O)n2cc(C3CCCNC3)c3ccccc32)cc1 (stereo not drawn) [Example 37, 1-(4-methoxy-benzenesulfonyl)-3-piperidin-3-yl-1H-indole]	10 nM
Cc1ccc(S(=O)(=O)n2cc(C3CCCNC3)c3ccccc32)cc1Cl (stereo not drawn) [Example 39, 1-(3-chloro-4-methyl-benzenesulfonyl)-3-piperidin-3-yl-1H-indole]	6 nM
CN1CCC(c2cn(S(=O)(=O)c3ccc4ccccc4c3)c3ccccc23)C1 (stereo not drawn) [Example 8, 1-(naphth-2-ylsulfonyl)-3-(1-methylpyrrolidin-3-yl)-1H-indole]	3 nM
